Measured values as given in US20120189673A1, “POLYPEPTIDES AND USES THEREOF” (priority 2009, published 2012).
Entries after “also recorded” stand apart in the source; their conditions may differ.

Assays:
RAW 264.7 macrophages = assay: NO production in RAW 264.7 macrophages stimulated with LPS or other microbial products (Griess reaction); format: cell-based, mouse
Method: Effects of various microbial products on macrophages in vitro and anti-inflammatory effects by various peptides of HCII and TFPI. 3.5×10^5 cells were seeded in 96-well tissue culture plates (Nunc, 167008) in phenol red-free DMEM (Gibco) supplemented with 10% FBS and antibiotics. Following 6 hours of incubation to permit adherence, cells were stimulated with 10 ng/mL E. coli (0111:B4) LPS (Sigma), lipoteichoic acid, peptioglycan, or zymosan, with and without peptides at the indicated doses (se figure legends and figures). The levels of NO in culture supernatants were determined after 24 hours from stimulation using the Griess reaction. Briefly, nitrite, a stable product of NO degradation, was measured by mixing 50 μl of culture supernatants with the same volume of Griess reagent (Sigma, G4410) and reading absorbance at 550 nm after 15 min. Phenol-red free DMEM with FBS and antibiotics were used as a blank. A standard curve was prepared using 0-80 μM sodium nitrite solutions in ddH20.
LPS effects on macrophages in vitro—[…] cells were seeded in 96-well tissue culture plates (Nunc, 167008) in phenol red-free DMEM (Gibco) supplemented with 10% FBS containing 1% Anti-Anti (Invitrogen). Following 20 hours of incubation to permit adherence, cells were washed and stimulated with 10 ng/ml E. coli (0111:B4) or P. aeruginosa LPS (Sigma), with and without the peptides GGL27, GGL27(S), and DSE25 of various doses. The levels of NO in culture supernatants were determined after 24 hours from stimulation using the Griess reaction (27). Briefly, nitrite, a stable product of NO degradation, was measured by mixing 50 μl of culture supernatants with the same volume of Griess reagent (Sigma, G4410) and reading absorbance at 550 nm after 15 min. Phenol-red free DMEM with FBS and antibiotics were used as a blank. A standard curve was prepared using 0-80 μM sodium nitrite solutions in ddH20.

P. aeruginosa = assay: Complement (C1q, C5b-9/MAC, C3a) binding to P. aeruginosa in citrate plasma (immunoblot, flow cytometry); format: cell-based, Pseudomonas aeruginosa; details: citrate plasma with GGL27 at 3 μM
Method: Flow cytometry analysis—Fifty μl of bacteria (1-2×10^6 cfu) were incubated with 450 μl of human plasma either alone or supplemented with GGL27 (at 3 μM). Samples were incubated for 30 min or 1 h at 37° C., divided into two equal parts, centrifuged, washed with PBS, and resuspended in 100 μl PBS with rabbit polyclonal antibodies against either LGE27 (25), a C-terminal epitope of human C3a, or rabbit polyclonal antibodies against C1q (both at 1:100). The mixtures were subsequently incubated for 1 h at room temperature. Bacteria were pelleted and washed twice with PBS, incubated in 100 μl PBS with goat anti rabbit IgG FITC-labeled antibodies (1:500, Sigma) for 30 min at room temperature and washed twice with PBS. In another experiment bacteria were incubated for 1 h in citrate plasma together with 3 μM TAMRA-labeled GGL27 peptide, then pelleted and washed twice with PBS. Flow cytometry analysis (Becton-Dickinson, Franklin Lakes, N.J.) was performed using a FACS-Calibur flow cytometry system equipped with a 15 mW argon laser turned a 488 nm. […]
SDS-PAGE and immunoblotting—Human citrate plasma (450 μl) was incubated with 50 μl bacteria (1-2×10^9 cfu) either alone or supplemented with the peptide GGL27 at 3 μM. […] Precipitated material and supernatants were dissolved in SDS sample buffer and analyzed under reducing conditions by SDS-PAGE on 16.5% Tris-tricine gels (Clear PAGE™, C.B.S Scientific). […]

[1] = system: P. aeruginosa infected mice; assay: Animal infection model, P. aeruginosa; format: in vivo, mouse; details: P. aeruginosa i.p.; GGL27 500 μg s.c. after 1 h; P<0.001
Method: Animal infection model—Animals were housed under standard conditions of light and temperature and had free access to standard laboratory chow and water. P. aeruginosa 15159 bacteria were grown to logarithmic phase (OD620˜0.5), harvested, washed in PBS, diluted in the same buffer to 2×10^8 cfu/ml, and kept on ice until injection. Hundred microliter of the bacterial suspension was injected intraperitoneally (i.p.) into female Balb/c mice. Sixty minutes after the bacterial injection, 0.5 mg GGL27 or buffer alone was injected subcutaneously (s.c.) into the mice. In a corresponding E. coli infection model, bacteria were grown to early logarithmic phase (OD620˜0.4), harvested, washed in PBS, diluted in the same buffer to 1×10^8 cfu/ml, and kept on ice until injection. Hundred microliter of the bacterial suspension was injected i.p. into female Balb/c mice. Thirty minutes after the bacterial injection, 0.2 mg of GGL27 peptide or buffer alone was injected i.p. Data from two independent experiments were pooled.

“GGLIKTKRKRKKQRVKIAYEEIFVKNM [GGL27, C-terminal peptide of TFPI, plasmin-generated]” was tested, and the “anti-endotoxic effects in vitro” value (RAW 264.7 macrophages) was “anti-endotoxic effects”, the “LPS-mediated NO release” value (RAW 264.7 macrophages; LPS from E. coli or P. aeruginosa, peptide at indicated concentrations (FIG. 41C)) was “inhibits NO production; also recorded: inhibited LPS-mediated NO-release” and the “generation and binding of C3a-containing fragments to the bacterial surface” value (P. aeruginosa; FACS analysis) was “increased generation and binding of these C3a-containing fragments”. The C1q/MAC alterations (P. aeruginosa) was “no significant C1q/MAC alterations” and the survival [1] was “prolongs survival; also recorded: prolongation of survival”.
